# Experimental data reported in patent US10280197B2, “Discovery of the first selective C5A receptor 2 (C5L2/C5AR2) ligands” (The Regents of the University of California, priority 2015, dated 2019).
# How the values were obtained:
# C5aR1 = molecular target: T1, C5aR1 (Homo sapiens, UniProt P21730); test: 125I-C5a binding to C5aR1 membranes; settings: up to a maximum concentration of 500 μM
# T1 sequence (P21730 1-350): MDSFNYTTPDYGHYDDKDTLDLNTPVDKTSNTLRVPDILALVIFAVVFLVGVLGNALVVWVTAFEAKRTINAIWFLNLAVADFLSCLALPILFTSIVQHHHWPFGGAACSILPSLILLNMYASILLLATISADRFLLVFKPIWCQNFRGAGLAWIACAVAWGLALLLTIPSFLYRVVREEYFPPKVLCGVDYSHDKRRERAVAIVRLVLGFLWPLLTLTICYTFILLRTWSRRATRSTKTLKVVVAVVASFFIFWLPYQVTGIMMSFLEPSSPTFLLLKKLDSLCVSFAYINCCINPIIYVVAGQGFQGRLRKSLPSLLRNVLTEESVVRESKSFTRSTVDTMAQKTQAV
# C5a1-C5a2 heteromer = molecular target: T2, C5a1-C5a2 heteromer (Homo sapiens, UniProt P21730+Q9P296); test: BRET ligand-induced heteromer formation between C5a1 and C5a2; type: cell-based; settings: P32 or P59 100 μM
# T2 construct: expressed in transfected cells; host or cells: HEK293 (transient)
# T2 sequence (Q9P296 whole entry, one chain of several): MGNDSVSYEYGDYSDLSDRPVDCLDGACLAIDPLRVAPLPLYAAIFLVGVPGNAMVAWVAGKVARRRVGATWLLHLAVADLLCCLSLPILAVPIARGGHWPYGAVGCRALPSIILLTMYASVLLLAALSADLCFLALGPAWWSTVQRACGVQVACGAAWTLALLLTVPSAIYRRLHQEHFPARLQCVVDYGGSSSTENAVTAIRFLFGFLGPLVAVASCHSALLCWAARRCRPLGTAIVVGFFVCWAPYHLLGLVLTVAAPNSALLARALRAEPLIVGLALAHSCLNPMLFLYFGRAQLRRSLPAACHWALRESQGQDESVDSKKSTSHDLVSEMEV
# Procedure: (§1) Assays were performed as a ligand-induced BRET experiment similar to previously described^17, 31, 49. In brief, HEK293 cells were transiently transfected with either C5a1-Rluc8 and β-arrestin 2-Venus or C5a2-Venus and β-arrestin 2-Rluc8 or C5a1-Rluc8 and C5a2-Venus in a 100-mm dish. 24 h after transfection cells were collected and transferred to a 96-well white microplate (Corning, N.Y., USA) in phenol-red free DMEM containing 5% FBS and 25 mM HEPES (Life Technologies). Cells were allowed to settle for 24 h and then were incubated with 30 μM Enduren (Promega, Madison, Wis., USA) for 2 h at 37° C. and 5% CO2 to ensure that the substrate had reached equilibrium. Following incubation BRET baseline measurements were taken for 15 min then ligands were added to plate and BRET measurements were taken for a further 1 h at 37° C. using a POLARstar optima microplate reader (BMG Labtech, Ortenberg, Germany). Filtered light emissions were sequentially measured for 1 s in each of the following windows 460-490 nm and 520-550 nm, both before and following ligand addition. The ligand-induced BRET ratio was calculated by subtracting the ratio of 520-550 nm emission over the 460-490 nm emission for a vehicle-treated sample from a ligand-treated sample of the same aliquot of cells in triplicate. […]
# [1] = tested on: ERK1/2 activation in HMDM; test: ERK1/2 phosphorylation assay (Alphascreen Surefire) in HMDM; type: cell-based, human; settings: for inhibition of C5a-induced ERK1/2 activation in HMDM: 30 min pre-incubation, then C5a 5 nM for 10 min; for direct ERK1/2 activation in HMDM: peptide alone
# Procedure: FIG. 5 is a graph showing that P32 and P59 inhibit C5a-induced ERK1/2 activation in HMDM. pERK quantified by Surefire ERK1/2 kit. Data is normalised to C5a 5 nM (100%) for each donor. Data are representative of at least three independent experiments HMDM donors performed in triplicate (n=3-5). Error bars represent SEM. **** P<0.0001 by one-way ANOVA followed by Dunnett's post hoc test.
# ERK1/2 phosphorylation assays were performed using the Alphascreen Surefire ERK1/2 kit (Perkin Elmer) as per manufacturers' instructions. Briefly, HMDM were seeded at 50 000 cells/well in 96-well tissue culture plates (Nunc, Waltham, Mass., USA) and serum starved overnight. Ligands were prepared in serum-free media. P32 and P59 were pre-incubated with cells for 30 min at 37° C. and 5% CO2, prior to the addition of C5a (5 nM) for 10 min at 37° C. and 5% CO2. Media was then removed and cells lysed with lysis buffer for 10 min on a shaker, 4 μL of lysate was transferred to a white 384-well proxiplate plate (Perkin Elmer) and incubated in the presence of 7 μL of reaction mix. The plate was sealed with TopSeal-A, incubated for 2 h at 37° C. and measured on an M1000Pro plate reader (Tecan, Mannedorf, Switzerland).
# C3aR = molecular target: T3, C3aR (Homo sapiens, UniProt Q16581); settings: up to a concentration of 100 μM, reference 27; cited from earlier work
# T3 sequence (Q16581 1-482): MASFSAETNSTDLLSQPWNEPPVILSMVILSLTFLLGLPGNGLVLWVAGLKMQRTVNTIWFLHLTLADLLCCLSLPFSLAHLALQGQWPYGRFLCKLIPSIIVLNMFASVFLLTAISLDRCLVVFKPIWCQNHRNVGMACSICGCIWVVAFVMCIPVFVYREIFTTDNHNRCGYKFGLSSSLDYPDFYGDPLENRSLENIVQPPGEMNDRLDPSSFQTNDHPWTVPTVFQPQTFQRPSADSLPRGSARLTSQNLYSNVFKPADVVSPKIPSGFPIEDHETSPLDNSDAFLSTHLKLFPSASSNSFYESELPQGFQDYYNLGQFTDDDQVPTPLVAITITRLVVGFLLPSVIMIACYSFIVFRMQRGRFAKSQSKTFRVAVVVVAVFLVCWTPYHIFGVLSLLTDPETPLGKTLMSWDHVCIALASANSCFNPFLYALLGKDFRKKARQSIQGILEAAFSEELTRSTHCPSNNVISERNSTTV
# C5a2 = C5a2 (Homo sapiens, UniProt Q9P296); test: BRET C5a2-β-arrestin 2 recruitment assay in HEK293 cells; type: cell-based; design: expressed in transfected cells; host or cells: HEK293 (transient); settings: for efficacy for β-arrestin 2 recruitment relative to affinity for C5a2: EC50 versus Ki; for EC50: calculated at ~40 min after ligand addition; for type of activity for recruitment of β-arrestin 2 via C5a2: compared to C5a
# Sequence of C5a2 (Q9P296 whole entry): as the sequence (Q9P296 whole entry, one chain of several) above
# Sequence of C5a2 (P32121 whole entry partner): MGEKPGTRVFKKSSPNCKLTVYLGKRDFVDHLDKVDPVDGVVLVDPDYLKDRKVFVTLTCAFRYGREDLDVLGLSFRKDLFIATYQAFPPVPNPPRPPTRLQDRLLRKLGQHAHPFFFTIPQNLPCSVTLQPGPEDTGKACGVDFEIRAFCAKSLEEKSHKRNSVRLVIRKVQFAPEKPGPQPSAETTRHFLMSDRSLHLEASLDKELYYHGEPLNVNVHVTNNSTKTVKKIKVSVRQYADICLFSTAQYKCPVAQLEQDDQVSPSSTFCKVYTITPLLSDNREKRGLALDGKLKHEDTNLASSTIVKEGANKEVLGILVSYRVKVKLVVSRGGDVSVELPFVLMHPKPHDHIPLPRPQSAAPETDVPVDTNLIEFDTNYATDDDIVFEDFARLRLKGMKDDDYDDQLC
# Procedure: Assays were performed as a ligand-induced BRET experiment similar to previously described^17, 31, 49. In brief, HEK293 cells were transiently transfected with either C5a1-Rluc8 and β-arrestin 2-Venus or C5a2-Venus and β-arrestin 2-Rluc8 or C5a1-Rluc8 and C5a2-Venus in a 100-mm dish. 24 h after transfection cells were collected and transferred to a 96-well white microplate (Corning, N.Y., USA) in phenol-red free DMEM containing 5% FBS and 25 mM HEPES (Life Technologies). Cells were allowed to settle for 24 h and then were incubated with 30 μM Enduren (Promega, Madison, Wis., USA) for 2 h at 37° C. and 5% CO2 to ensure that the substrate had reached equilibrium. Following incubation BRET baseline measurements were taken for 15 min then ligands were added to plate and BRET measurements were taken for a further 1 h at 37° C. using a POLARstar optima microplate reader (BMG Labtech, Ortenberg, Germany). Filtered light emissions were sequentially measured for 1 s in each of the following windows 460-490 nm and 520-550 nm, both before and following ligand addition. The ligand-induced BRET ratio was calculated by subtracting the ratio of 520-550 nm emission over the 460-490 nm emission for a vehicle-treated sample from a ligand-treated sample of the same aliquot of cells in triplicate. The BRET ratio was calculated by subtracting the ratio of 520-550 nm emission over the 460-490 nm emission for a cell sample containing the C5a1-Rluc8 or β-arrestin 2-Rluc8 construct from a cell sample containing both the C5a1-Rluc8 and β-arrestin 2-Venus or C5a2-Venus and β-arrestin 2-Rluc8 or C5a1-Rluc8 and C5a2-Venus constructs. Peptides were also tested for ligand-induced β-arrestin 2 recruitment at 100 μM using DiscoveRx PathHunter kits for human C5a1 and C5a2 (DiscoveRx Corporation. Birmingham, UK), according to the manufacturer's instructions.
# C5a1 = molecular target: T4, C5a1 (Homo sapiens, UniProt P21730); test: BRET β-arrestin 2 recruitment by C5a1 in HEK293 cells; type: cell-based; design: expressed in transfected cells; host or cells: HEK293 (transient); settings: P32 or P59 100 μM
# T4 sequence (P21730 1-350): T1 sequence (P21730 1-350)
# Procedure: as §1
Substance,"inhibition of 125I-C5a binding to C5aR1 membranes, full concentration response (C5aR1)",up-regulation of heteromer formation between C5a1-C5a2 (C5a1-C5a2 heteromer),inhibition of C5a-induced ERK1/2 activation in HMDM [1],direct ERK1/2 activation in HMDM [1],activity (agonist or antagonist) at C3aR (C3aR),C5a2-β-arrestin 2 BRET Recruitment (% of C5a) (C5a2),efficacy for β-arrestin 2 recruitment relative to affinity for C5a2 (C5a2) [fold],EC50 (C5a2) [µM],type of activity for recruitment of β-arrestin 2 via C5a2 (C5a2),β-arrestin 2 recruitment via C5a1 (C5a1)
"Ac-LIRLWR-OH [Peptide P59, Ac-LIRLWR-OH]",dose-dependently inhibited,neither P32 or P59 were able to up-regulate heteromer formation,significantly inhibit,Neither P32 or P59 could induce ERK1/2 activation alone,no activity,52.9 % of C5a,~6,7.6 ± 0.6,partial agonists,"Neither, P32 or P59 could recruit β-arrestin 2 via C5a1"
"Ac-RHYPYWR-OH [Peptide P32, Ac-RHYPYWR-OH]",dose-dependently inhibited,neither P32 or P59 were able to up-regulate heteromer formation,significantly inhibit,Neither P32 or P59 could induce ERK1/2 activation alone,no activity,28.8 % of C5a,~37,5.9 ± 3.4,partial agonists,"Neither, P32 or P59 could recruit β-arrestin 2 via C5a1"
